Measured values from ChEMBL document CHEMBL1201862, “PubChem BioAssay data set” (2004).
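Test compounds were applied to cells in 96-well plates for 48 hours at 5 doses. GI50: concentration for 50% inhibition of growth.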 Activity calls are given as the source filed them. No stated cut-off is given here; in the data, active = GI50 up to about 1.1 µM and inactive = higher.

What was measured:
Experiment in all cases: DTP human tumour cell line panel, 48 h
HOP-62 = test system: HOP-62
COLO 205 = test system: COLO 205
SF-295 = test system: SF-295
NCI-H226 = test system: NCI-H226
SNB-19 = test system: SNB-19
EKVX = test system: EKVX
NCI-H23 = test system: NCI-H23
U-251 = test system: U-251
HT-29 = test system: HT-29
NCI-H522 = test system: NCI-H522
NCI-H460 = test system: NCI-H460
HCT-15 = test system: HCT-15
TK-10 = test system: TK-10
CAKI-1 = test system: CAKI-1
HCC 2998 = test system: HCC 2998
SK-MEL-2 = test system: SK-MEL-2

Q: For `CN1N=C2NCCNC3=NN(C)/C(=N/CC/N=C/1S2)S3`, which GI50 (HOP-62) is on record?
A: The GI50 was > 100 µM (inactive).

Q: What about the GI50 (COLO 205) of the same compound?
A: Its GI50 is > 100 µM (inactive).

Q: What about the GI50 (SF-295) of the same compound?
A: Its GI50 is > 100 µM (inactive).

Q: And the GI50 (NCI-H226)?
A: Its GI50 is > 100 µM (inactive).

Q: What about the GI50 (SNB-19) of the same compound?
A: The GI50 was > 100 µM (inactive).

Q: And the GI50 (EKVX)?
A: Its GI50 is > 100 µM (inactive).

Q: And the GI50 (NCI-H23)?
A: Its GI50 is > 100 µM (inactive).

Q: And the GI50 (U-251)?
A: Its GI50 is > 100 µM (inactive).

Q: And the GI50 (HT-29)?
A: Its GI50 is > 100 µM (inactive).

Q: What about the GI50 (NCI-H522) of the same compound?
A: The GI50 was > 100 µM (inactive).

Q: What about the GI50 (NCI-H460) of the same compound?
A: The GI50 was > 100 µM (inactive).

Q: What about the GI50 (HCT-15) of the same compound?
A: Its GI50 is greater than 100 µM.

Q: How did the GI50 (TK-10) turn out when `COc1cccc2c1C(=O)c1c(O)c3c(c(O)c1C2=O)C[C@@](O)(C(C)=O)C[C@@H]3OC1CC([N+]([O-])(Cc2ccccc2)Cc2ccccc2)C(O)C(C)O1` (stereo partly specified) was run?
A: The GI50 was 1.6 µM (inactive).

Q: And the GI50 (HOP-62)?
A: The GI50 was 1.56 µM (inactive).

Q: And the GI50 (SF-295)?
A: Its GI50 is 1.19 µM (inactive).

Q: What about the GI50 (SNB-19) of the same compound?
A: Its GI50 is 2.13 µM (inactive).

Q: And the GI50 (CAKI-1)?
A: The GI50 was 1.14 µM (inactive).

Q: And the GI50 (EKVX)?
A: Its GI50 is 1.8 µM (inactive).

Q: And the GI50 (NCI-H23)?
A: The GI50 was 1.3 µM (inactive).

Q: And the GI50 (U-251)?
A: Its GI50 is 1.24 µM (inactive).

Q: And the GI50 (HT-29)?
A: Its GI50 is 1.52 µM (inactive).

Q: What about the GI50 (HCC 2998) of the same compound?
A: Its GI50 is 1.62 µM (inactive).

Q: And the GI50 (NCI-H522)?
A: Its GI50 is 1.39 µM (inactive).

Q: What about the GI50 (NCI-H460) of the same compound?
A: Its GI50 is 0.71 µM (active).

Q: What about the GI50 (HCT-15) of the same compound?
A: Its GI50 is 1.32 µM.

Q: What about the GI50 (SK-MEL-2) of the same compound?
A: Its GI50 is 1.98 µM (inactive).

Q: `NC(CCCNc1cccc(O)c1)C(=O)O` (stereo unspecified) was tested. Which GI50 (TK-10) did it give?
A: Its GI50 is > 100 µM (inactive).

Q: And the GI50 (HOP-62)?
A: The GI50 was > 100 µM (inactive).

Q: What about the GI50 (COLO 205) of the same compound?
A: The GI50 was > 100 µM (inactive).

Q: And the GI50 (SF-295)?
A: Its GI50 is > 100 µM (inactive).

Q: And the GI50 (NCI-H226)?
A: Its GI50 is > 100 µM (inactive).

Q: And the GI50 (SNB-19)?
A: The GI50 was > 100 µM (inactive).

Q: And the GI50 (CAKI-1)?
A: The GI50 was > 100 µM (inactive).

Q: And the GI50 (EKVX)?
A: The GI50 was > 100 µM (inactive).

Q: What about the GI50 (U-251) of the same compound?
A: Its GI50 is > 100 µM (inactive).

Q: What about the GI50 (HT-29) of the same compound?
A: Its GI50 is > 100 µM (inactive).

Q: And the GI50 (NCI-H522)?
A: The GI50 was > 100 µM (inactive).

Q: And the GI50 (NCI-H460)?
A: Its GI50 is > 100 µM (inactive).

Q: What about the GI50 (HCT-15) of the same compound?
A: Its GI50 is greater than 100 µM.

Q: What about the GI50 (SK-MEL-2) of the same compound?
A: The GI50 was > 100 µM (inactive).

Q: How did the GI50 (TK-10) turn out when `CC(=O)OC(CCC1(C)OC1COc1ccc(CCNC(=O)c2ccccc2)cc1)C(C)(C)OC(C)=O` (stereo unspecified) was run?
A: Its GI50 is 49.3 µM (inactive).

Q: And the GI50 (HOP-62)?
A: The GI50 was 15.5 µM (inactive).

Q: And the GI50 (COLO 205)?
A: The GI50 was 19.5 µM (inactive).

Q: And the GI50 (SF-295)?
A: The GI50 was 11.4 µM (inactive).

Q: What about the GI50 (NCI-H226) of the same compound?
A: The GI50 was > 100 µM (inactive).

Q: And the GI50 (CAKI-1)?
A: Its GI50 is 19 µM (inactive).

Q: And the GI50 (NCI-H23)?
A: Its GI50 is 0.302 µM (active).

Q: What about the GI50 (U-251) of the same compound?
A: Its GI50 is 37.3 µM (inactive).

Q: What about the GI50 (HT-29) of the same compound?
A: Its GI50 is 17.4 µM (inactive).

Q: What about the GI50 (NCI-H522) of the same compound?
A: The GI50 was 22.9 µM (inactive).

Q: What about the GI50 (NCI-H460) of the same compound?
A: The GI50 was 13.1 µM (inactive).

Q: And the GI50 (HCT-15)?
A: The GI50 was 13.9 µM.

Q: What about the GI50 (SK-MEL-2) of the same compound?
A: Its GI50 is 17.3 µM (inactive).

Q: How did the GI50 (TK-10) turn out when `O=C1C(=Cc2ccc([N+](=O)[O-])o2)C(=O)N(CCc2ccccc2)S(=O)(=O)N1CCc1ccccc1` was run?
A: The GI50 was 42.2 µM (inactive).

Q: What about the GI50 (COLO 205) of the same compound?
A: Its GI50 is 20.2 µM (inactive).

Q: What about the GI50 (SF-295) of the same compound?
A: Its GI50 is > 100 µM (inactive).

Q: And the GI50 (NCI-H226)?
A: Its GI50 is 24.7 µM (inactive).

Q: What about the GI50 (SNB-19) of the same compound?
A: Its GI50 is > 100 µM (inactive).

Q: And the GI50 (EKVX)?
A: Its GI50 is > 100 µM (inactive).

Q: And the GI50 (NCI-H23)?
A: Its GI50 is 16.8 µM (inactive).

Q: And the GI50 (U-251)?
A: Its GI50 is > 100 µM (inactive).

Q: And the GI50 (HT-29)?
A: The GI50 was 33.5 µM (inactive).

Q: And the GI50 (HCC 2998)?
A: Its GI50 is > 100 µM (inactive).

Q: What about the GI50 (NCI-H522) of the same compound?
A: Its GI50 is 19.9 µM (inactive).

Q: And the GI50 (NCI-H460)?
A: The GI50 was > 100 µM (inactive).

Q: What about the GI50 (HCT-15) of the same compound?
A: Its GI50 is 16.3 µM.

Q: And the GI50 (SK-MEL-2)?
A: Its GI50 is 16.6 µM (inactive).

Q: Which results are given for `C=C[C@@]1(O)CCCC2=C(C(=O)OCC)CC[C@]21C`?
A: GI50 (TK-10): > 100 µM (inactive); GI50 (COLO 205): > 100 µM (inactive); GI50 (SF-295): > 100 µM (inactive); GI50 (NCI-H226): > 100 µM (inactive); GI50 (SNB-19): 47.5 µM (inactive); GI50 (EKVX): > 100 µM (inactive); GI50 (NCI-H23): > 100 µM (inactive); GI50 (U-251): > 100 µM (inactive); GI50 (HT-29): 64.4 µM (inactive); GI50 (HCC 2998): > 100 µM (inactive); GI50 (NCI-H522): > 100 µM (inactive); GI50 (NCI-H460): > 100 µM (inactive); GI50 (HCT-15): > 100 µM; GI50 (SK-MEL-2): 90.8 µM (inactive)

Q: `Nc1ccccc1Nc1ccccc1C(=O)[O-].Nc1ccccc1Nc1ccccc1C(=O)[O-].[Zn+2]` was tested. Which GI50 (TK-10) did it give?
A: The GI50 was > 100 µM (inactive).

Q: What about the GI50 (HOP-62) of the same compound?
A: The GI50 was > 100 µM (inactive).

Q: And the GI50 (COLO 205)?
A: Its GI50 is > 100 µM (inactive).

Q: And the GI50 (SF-295)?
A: Its GI50 is 32.8 µM (inactive).

Q: What about the GI50 (SNB-19) of the same compound?
A: The GI50 was > 100 µM (inactive).

Q: What about the GI50 (CAKI-1) of the same compound?
A: The GI50 was > 100 µM (inactive).

Q: What about the GI50 (EKVX) of the same compound?
A: Its GI50 is > 100 µM (inactive).

Q: What about the GI50 (NCI-H23) of the same compound?
A: Its GI50 is > 100 µM (inactive).

Q: What about the GI50 (U-251) of the same compound?
A: Its GI50 is > 100 µM (inactive).

Q: And the GI50 (HT-29)?
A: The GI50 was > 100 µM (inactive).

Q: What about the GI50 (HCC 2998) of the same compound?
A: The GI50 was > 100 µM (inactive).

Q: And the GI50 (NCI-H522)?
A: Its GI50 is 19.7 µM (inactive).

Q: What about the GI50 (NCI-H460) of the same compound?
A: Its GI50 is > 100 µM (inactive).

Q: And the GI50 (HCT-15)?
A: Its GI50 is greater than 100 µM.

Q: What about the GI50 (SK-MEL-2) of the same compound?
A: The GI50 was 19.8 µM (inactive).

Q: `CCOC(=O)Oc1c(OC)cc(C(=O)NC2CCc3cc(OC)c(OC)c(OC)c3-c3ccc(SC)c(=O)cc32)cc1OC` (stereo unspecified) was tested. Which GI50 (TK-10) did it give?
A: The GI50 was 0.474 µM (active).

Q: What about the GI50 (HOP-62) of the same compound?
A: The GI50 was 0.601 µM (active).

Q: And the GI50 (COLO 205)?
A: Its GI50 is 0.0439 µM (active).

Q: What about the GI50 (SF-295) of the same compound?
A: Its GI50 is 0.145 µM (active).

Q: What about the GI50 (NCI-H226) of the same compound?
A: The GI50 was 0.0471 µM (active).

Q: And the GI50 (SNB-19)?
A: The GI50 was 0.324 µM (active).

Q: And the GI50 (EKVX)?
A: Its GI50 is 0.16 µM (active).

Q: What about the GI50 (NCI-H23) of the same compound?
A: The GI50 was 0.0439 µM (active).

Q: What about the GI50 (U-251) of the same compound?
A: Its GI50 is 0.0346 µM (active).

Q: What about the GI50 (HT-29) of the same compound?
A: The GI50 was 0.0484 µM (active).

Q: What about the GI50 (HCC 2998) of the same compound?
A: The GI50 was 0.0473 µM (active).

Q: And the GI50 (NCI-H522)?
A: Its GI50 is < 0.007 µM (active).

Q: What about the GI50 (NCI-H460) of the same compound?
A: Its GI50 is 0.164 µM (active).

Q: And the GI50 (HCT-15)?
A: Its GI50 is 0.445 µM.

Q: And the GI50 (SK-MEL-2)?
A: The GI50 was 0.0466 µM (active).
